Results taken from PubChem BioAssay (NCI).
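Assay format: 96-well plates, 48-hour exposure. The concentration for full growth arrest is given as TGI.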

Assays:
Assay in all cases: NCI anticancer screen, dose series, 48 h
[1] = tested on: 786-0 renal
[2] = tested on: A498 renal
[3] = tested on: A549 NSCLC
[4] = tested on: ACHN renal
[5] = tested on: CCRF-CEM leukemia
[6] = tested on: COLO 205 colon
[7] = tested on: DLD-1 colon
[8] = tested on: DMS 273 small cell lung
[9] = tested on: EKVX NSCLC
[10] = tested on: HCC-2998 colon
[11] = tested on: HCT-116 colon
[12] = tested on: HCT-15 colon
[13] = tested on: HL-60(TB) leukemia
[14] = tested on: HOP-18 NSCLC
[15] = tested on: HOP-62 NSCLC
[16] = tested on: HOP-92 NSCLC
[17] = tested on: HT29 colon
[18] = tested on: IGROV1 ovarian
[19] = tested on: K-562 leukemia
[20] = tested on: KM12 colon
[21] = tested on: KM20L2 colon
[22] = tested on: LOX IMVI melanoma
[23] = tested on: LXFL 529 NSCLC
[24] = tested on: M14 melanoma
[25] = tested on: M19-MEL melanoma
[26] = tested on: MALME-3M melanoma
[27] = tested on: MOLT-4 leukemia
[28] = tested on: NCI-H23 lung
[29] = tested on: NCI-H460 lung
[30] = tested on: OVCAR-3 ovarian
[31] = tested on: OVCAR-4 ovarian
[32] = tested on: OVCAR-5 ovarian
[33] = tested on: OVCAR-8 ovarian
[34] = tested on: RPMI-8226 leukemia
[35] = tested on: RXF 393 renal
[36] = tested on: RXF-631 renal
[37] = tested on: SF-268 CNS
[38] = tested on: SF-295 CNS
[39] = tested on: SF-539 CNS
[40] = tested on: SK-MEL-2 melanoma
[41] = tested on: SK-MEL-28 melanoma
[42] = tested on: SK-MEL-5 melanoma
[43] = tested on: SK-OV-3 ovarian
[44] = tested on: SN12C renal
[45] = tested on: SNB-19 CNS
[46] = tested on: SNB-75 CNS
[47] = tested on: SNB-78 CNS
[48] = tested on: SR leukemia
[49] = tested on: SW-620 colon
[50] = tested on: TK-10 renal
[51] = tested on: U251 CNS
[52] = tested on: UACC-257 melanoma
[53] = tested on: UACC-62 melanoma
[54] = tested on: UO-31 renal
[55] = tested on: XF 498 CNS
[56] = tested on: CAKI-1 renal
[57] = tested on: DMS 114 small cell lung
[58] = tested on: NCI-H226 lung
[59] = tested on: NCI-H522 lung

SMILES: CCOC(=O)C=C1CCN(C(=O)c2ccccc2)CC1
- TGI [1]: > 100 µM
- TGI [2]: > 100 µM
- TGI [3]: > 100 µM
- TGI [4]: > 100 µM
- TGI [5]: > 100 µM
- TGI [6]: > 100 µM
- TGI [7]: > 100 µM
- TGI [8]: > 100 µM
- TGI [9]: > 100 µM
- TGI [10]: > 100 µM
- TGI [11]: > 100 µM
- TGI [12]: > 100 µM
- TGI [13]: > 100 µM
- TGI [14]: > 100 µM
- TGI [15]: > 100 µM
- TGI [16]: > 100 µM
- TGI [17]: > 100 µM
- TGI [18]: > 100 µM
- TGI [19]: > 100 µM
- TGI [20]: > 100 µM
- TGI [21]: > 100 µM
- TGI [22]: > 100 µM
- TGI [23]: > 100 µM
- TGI [24]: > 100 µM
- TGI [25]: > 100 µM
- TGI [26]: > 100 µM
- TGI [27]: > 100 µM
- TGI [28]: > 100 µM
- TGI [29]: > 100 µM
- TGI [30]: > 100 µM
- TGI [31]: > 100 µM
- TGI [32]: > 100 µM
- TGI [33]: > 100 µM
- TGI [34]: > 100 µM
- TGI [35]: > 100 µM
- TGI [36]: > 100 µM
- TGI [37]: > 100 µM
- TGI [38]: > 100 µM
- TGI [39]: > 100 µM
- TGI [40]: 0.284 µM
- TGI [41]: > 100 µM
- TGI [42]: > 100 µM
- TGI [43]: > 100 µM
- TGI [44]: > 100 µM
- TGI [45]: > 100 µM
- TGI [46]: > 100 µM
- TGI [47]: > 100 µM
- TGI [48]: > 100 µM
- TGI [49]: > 100 µM
- TGI [50]: > 100 µM
- TGI [51]: > 100 µM
- TGI [52]: > 100 µM
- TGI [53]: > 100 µM
- TGI [54]: > 100 µM
- TGI [55]: > 100 µM

SMILES: CC#COP(=O)(OCC)OCC
- TGI [1]: > 100 µM
- TGI [2]: > 100 µM
- TGI [3]: > 100 µM
- TGI [4]: > 100 µM
- TGI [56]: > 100 µM
- TGI [5]: > 100 µM
- TGI [6]: > 100 µM
- TGI [7]: > 100 µM
- TGI [57]: > 100 µM
- TGI [9]: > 100 µM
- TGI [10]: > 100 µM
- TGI [11]: > 100 µM
- TGI [12]: > 100 µM
- TGI [13]: 60.6 µM
- TGI [15]: > 100 µM
- TGI [17]: > 100 µM
- TGI [18]: > 100 µM
- TGI [19]: > 100 µM
- TGI [20]: > 100 µM
- TGI [21]: > 100 µM
- TGI [22]: > 100 µM
- TGI [23]: > 100 µM
- TGI [24]: > 100 µM
- TGI [25]: > 100 µM
- TGI [26]: > 100 µM
- TGI [27]: > 100 µM
- TGI [58]: > 100 µM
- TGI [28]: > 100 µM
- TGI [29]: > 100 µM
- TGI [59]: > 100 µM
- TGI [30]: > 100 µM
- TGI [31]: > 100 µM
- TGI [32]: > 100 µM
- TGI [33]: > 100 µM
- TGI [34]: > 100 µM
- TGI [36]: > 100 µM
- TGI [37]: > 100 µM
- TGI [38]: > 100 µM
- TGI [39]: > 100 µM
- TGI [40]: > 100 µM
- TGI [42]: > 100 µM
- TGI [43]: > 100 µM
- TGI [44]: > 100 µM
- TGI [45]: > 100 µM
- TGI [47]: > 100 µM
- TGI [48]: > 100 µM
- TGI [49]: > 100 µM
- TGI [50]: > 100 µM
- TGI [51]: > 100 µM
- TGI [52]: > 100 µM
- TGI [53]: > 100 µM
- TGI [54]: > 100 µM
